Laboratory results published in ChEMBL document CHEMBL5523718, “Design, synthesis, molecular modeling, in vitro and in vivo biological evaluation of potent anthranilamide derivatives as dual P-glycoprotein and CYP3A4 inhibitors” (Eur J Med Chem, 2024).
pEC50, pIC50: −log10 of the molar value. ≈ marks a conversion by molar mass, not a printed value.

What was measured:
[1] = Metabolic stability in human liver microsome assessed as half life; assay type: ADME; conditions: liver microsomes
[2] = Inhibition of CYP3A4 in mouse liver using luciferin-IPA as substrate microsome preincubated with compound for 10 mins followed by NADPH addition and measured after 5 mins; assay type: ADME, microsomes
[3] = Metabolic stability in mouse liver microsome assessed as half life; assay type: ADME; conditions: liver microsomes
Cytochrome P450 3A4 [4] = molecular target: T1, Cytochrome P450 3A4 (Homo sapiens, UniProt P08684); assay: Inhibition of CYP3A4 in human Hepatocyte using Luciferin-IPA as substrate; assay type: ADME, cell-based
P-gp (ABCB1) [5] = molecular target: T2, P-gp (ABCB1) (Homo sapiens, UniProt P08183); assay: Inhibition of P-gp in human Caco-2 cells at 5 uM in presence of paclitaxel relative to control; assay type: cell-based; conditions: Caco-2, probe paclitaxel
P-gp (ABCB1) [6] = molecular target: T2, P-gp (ABCB1); assay: Inhibition of P-gp in human Caco-2 cells at 1 uM in presence of paclitaxel relative to control; assay type: cell-based; conditions: Caco-2, probe paclitaxel
[7] = molecular target: T3, ATP-dependent translocase ABCB1 (Homo sapiens, UniProt P08183); assay: Inhibition of P-gp in human Caco-2 cells in presence of paclitaxel; assay type: cell-based
[8] = molecular target: T3, ATP-dependent translocase ABCB1; assay: Inhibition of P-gp in human MES-SA/Dx5 cells; assay type: cell-based
[9] = Apparent permeability across apical to basolateral side in human Caco-2 cells assessed as drug recovery; assay type: ADME, cell-based; conditions: read-out: Drug recovery
[10] = Metabolic stability in rat liver microsome assessed as half life; assay type: ADME; conditions: liver microsomes
MES-SA/Dx5 = assay: Cytotoxicity against human MES-SA/Dx5 cells at 1.28 uM incubated for 3 days by MTT assay relative to control; assay type: functional; conditions: time 3 day
[11] = Tlast in CD-1 mouse at 5 mg/kg, iv measured upto 8 hrs by LC-MS/MS analysis; assay type: ADME, organism-based; conditions: in vivo
[12] = C0 in CD-1 mouse at 5 mg/kg, iv measured upto 8 hrs by LC-MS/MS analysis; assay type: ADME, organism-based; conditions: in vivo
[13] = Apparent permeability across basolateral to apical side in human Caco-2 cells assessed as drug recovery; assay type: ADME, cell-based; conditions: read-out: Drug recovery
Cytochrome P450 2C8 = molecular target: T4, Cytochrome P450 2C8 (Homo sapiens, UniProt P10632); assay: Inhibition of CYP2C8 (unknown origin) using Amodiaquine as substrate; assay type: ADME
T4 sequence (P10632 whole entry): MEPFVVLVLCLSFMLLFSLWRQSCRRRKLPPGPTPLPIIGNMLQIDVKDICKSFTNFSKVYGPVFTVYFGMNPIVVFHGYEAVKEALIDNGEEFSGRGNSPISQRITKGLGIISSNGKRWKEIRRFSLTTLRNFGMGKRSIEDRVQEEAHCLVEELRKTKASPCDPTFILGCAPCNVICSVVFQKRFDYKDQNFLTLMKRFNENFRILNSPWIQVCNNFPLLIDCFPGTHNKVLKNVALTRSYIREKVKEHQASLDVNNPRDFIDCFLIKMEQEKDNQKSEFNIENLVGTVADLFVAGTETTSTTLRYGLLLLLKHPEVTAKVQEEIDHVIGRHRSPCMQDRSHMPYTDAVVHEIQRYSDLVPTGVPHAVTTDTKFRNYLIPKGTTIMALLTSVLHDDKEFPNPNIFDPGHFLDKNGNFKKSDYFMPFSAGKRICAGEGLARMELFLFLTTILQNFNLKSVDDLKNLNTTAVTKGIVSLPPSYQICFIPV

[14] = Apparent permeability of compound across basolateral to apical side in human Caco-2 cells; assay type: ADME, cell-based
Cytochrome P450 2D6 = Cytochrome P450 2D6 (Homo sapiens, UniProt P10635); assay: Inhibition of CYP2D6 (unknown origin) using Bufuralol as substrate; assay type: ADME
Cytochrome P450 2C9 = Cytochrome P450 2C9 (Homo sapiens, UniProt P11712); assay: Inhibition of CYP2C9 (unknown origin) using Diclofenac as substrate; assay type: ADME
[15] = Inhibition of MRP1 (unknown origin) ATPase activity; design: species or system Homo sapiens
[16] = molecular target: ATP-binding cassette sub-family C member 2 (Homo sapiens, UniProt Q92887); assay: Inhibition of MRP2 (unknown origin) ATPase activity
[17] = Inhibition of CYP3A4 in rat liver using luciferin-IPA as substrate microsome preincubated with compound for 10 mins followed by NADPH addition and measured after 5 mins; assay type: ADME, microsomes
[18] = Metabolic stability in monkey liver microsome assessed as half life; assay type: ADME, Macaca mulatta; conditions: rhesus monkey, liver microsomes
Cytochrome P450 3A4 [19] = molecular target: T1, Cytochrome P450 3A4; assay: Inhibition of CYP3A4 (unknown origin) using Midazolam as substrate; assay type: ADME
[20] = Metabolic stability in mouse liver microsome assessed as intrinsic clearance; assay type: ADME; conditions: microsomes
Cytochrome P450 3A4 [21] = molecular target: T1, Cytochrome P450 3A4; assay: Inhibition of CYP3A4 in human liver using luciferin-IPA as substrate microsome preincubated with compound for 10 mins followed by NADPH addition and measured after 5 mins; assay type: ADME, microsomes
Cytochrome P450 2B6 = molecular target: T5, Cytochrome P450 2B6 (Homo sapiens, UniProt P20813); assay: Inhibition of CYP2B6 (unknown origin) using Bupropion as substrate; assay type: ADME
T5 sequence (P20813 whole entry): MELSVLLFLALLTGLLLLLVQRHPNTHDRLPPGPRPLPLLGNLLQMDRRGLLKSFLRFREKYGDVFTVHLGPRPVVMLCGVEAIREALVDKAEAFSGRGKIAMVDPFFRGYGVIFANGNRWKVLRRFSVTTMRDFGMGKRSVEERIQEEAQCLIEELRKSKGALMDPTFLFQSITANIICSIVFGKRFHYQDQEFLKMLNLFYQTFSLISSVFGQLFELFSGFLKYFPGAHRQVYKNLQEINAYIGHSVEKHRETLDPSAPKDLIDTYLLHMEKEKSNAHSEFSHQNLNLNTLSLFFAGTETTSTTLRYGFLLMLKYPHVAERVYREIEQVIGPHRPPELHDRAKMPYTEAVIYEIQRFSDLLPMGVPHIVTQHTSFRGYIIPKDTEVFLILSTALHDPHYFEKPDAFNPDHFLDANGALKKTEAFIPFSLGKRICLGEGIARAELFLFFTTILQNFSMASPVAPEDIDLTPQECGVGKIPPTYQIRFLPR

P-gp (ABCB1) [22] = molecular target: T2, P-gp (ABCB1); assay: Inhibition of P-gp in human Caco-2 cells at 10 uM in presence of paclitaxel relative to control; assay type: cell-based; conditions: Caco-2, probe paclitaxel
[23] = Equilibrium solubility of compound in PBS at pH 7.4; assay type: physicochemical; conditions: PBS

T2 sequence (P08183 whole entry): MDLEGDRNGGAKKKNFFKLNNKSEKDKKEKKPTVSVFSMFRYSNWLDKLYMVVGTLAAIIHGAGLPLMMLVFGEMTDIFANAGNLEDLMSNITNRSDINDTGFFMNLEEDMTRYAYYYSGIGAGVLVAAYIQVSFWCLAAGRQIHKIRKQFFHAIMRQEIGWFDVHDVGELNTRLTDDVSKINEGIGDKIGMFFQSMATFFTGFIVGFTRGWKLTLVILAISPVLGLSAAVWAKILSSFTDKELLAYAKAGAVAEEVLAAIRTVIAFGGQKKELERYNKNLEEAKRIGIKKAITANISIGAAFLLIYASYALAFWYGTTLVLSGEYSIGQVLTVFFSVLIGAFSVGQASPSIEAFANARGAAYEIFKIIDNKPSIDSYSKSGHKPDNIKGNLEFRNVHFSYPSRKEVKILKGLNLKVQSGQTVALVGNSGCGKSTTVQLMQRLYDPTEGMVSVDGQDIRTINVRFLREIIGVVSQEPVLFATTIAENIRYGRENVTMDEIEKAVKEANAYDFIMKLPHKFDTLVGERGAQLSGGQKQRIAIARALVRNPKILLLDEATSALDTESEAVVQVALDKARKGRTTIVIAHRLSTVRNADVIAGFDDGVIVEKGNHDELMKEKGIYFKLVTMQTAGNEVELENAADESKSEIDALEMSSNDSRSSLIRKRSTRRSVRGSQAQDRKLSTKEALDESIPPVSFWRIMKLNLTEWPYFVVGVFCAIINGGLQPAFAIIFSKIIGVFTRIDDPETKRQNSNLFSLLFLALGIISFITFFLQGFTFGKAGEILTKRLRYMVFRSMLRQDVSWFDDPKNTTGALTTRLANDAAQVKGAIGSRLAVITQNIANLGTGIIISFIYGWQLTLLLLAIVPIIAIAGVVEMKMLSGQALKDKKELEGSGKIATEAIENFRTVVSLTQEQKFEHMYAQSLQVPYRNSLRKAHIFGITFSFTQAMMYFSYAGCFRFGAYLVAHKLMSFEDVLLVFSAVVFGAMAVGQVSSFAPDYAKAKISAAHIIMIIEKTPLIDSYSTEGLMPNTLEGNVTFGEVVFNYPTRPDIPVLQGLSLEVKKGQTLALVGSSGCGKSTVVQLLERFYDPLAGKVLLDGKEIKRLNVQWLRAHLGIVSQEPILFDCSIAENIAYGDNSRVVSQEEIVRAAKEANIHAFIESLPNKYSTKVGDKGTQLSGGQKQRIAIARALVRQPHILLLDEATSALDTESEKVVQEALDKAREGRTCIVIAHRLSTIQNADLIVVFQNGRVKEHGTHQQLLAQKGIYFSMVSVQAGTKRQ
T1 sequence (P08684 whole entry): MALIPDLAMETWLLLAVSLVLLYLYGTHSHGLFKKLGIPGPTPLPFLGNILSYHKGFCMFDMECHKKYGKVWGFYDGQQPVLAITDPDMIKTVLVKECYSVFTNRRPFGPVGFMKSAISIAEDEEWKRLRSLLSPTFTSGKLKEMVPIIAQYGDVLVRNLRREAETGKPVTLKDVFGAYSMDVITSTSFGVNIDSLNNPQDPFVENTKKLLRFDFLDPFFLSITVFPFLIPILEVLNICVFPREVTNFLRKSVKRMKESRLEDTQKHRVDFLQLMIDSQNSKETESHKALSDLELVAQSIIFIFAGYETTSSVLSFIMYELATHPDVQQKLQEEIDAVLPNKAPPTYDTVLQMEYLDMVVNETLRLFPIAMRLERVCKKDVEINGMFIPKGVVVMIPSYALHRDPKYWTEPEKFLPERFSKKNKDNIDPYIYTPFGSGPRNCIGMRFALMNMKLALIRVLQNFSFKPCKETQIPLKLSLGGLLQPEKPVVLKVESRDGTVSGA
T3 sequence (P08183 whole entry): as the sequence (P08183 whole entry) above
Sequence of Cytochrome P450 2C9 (P11712 whole entry): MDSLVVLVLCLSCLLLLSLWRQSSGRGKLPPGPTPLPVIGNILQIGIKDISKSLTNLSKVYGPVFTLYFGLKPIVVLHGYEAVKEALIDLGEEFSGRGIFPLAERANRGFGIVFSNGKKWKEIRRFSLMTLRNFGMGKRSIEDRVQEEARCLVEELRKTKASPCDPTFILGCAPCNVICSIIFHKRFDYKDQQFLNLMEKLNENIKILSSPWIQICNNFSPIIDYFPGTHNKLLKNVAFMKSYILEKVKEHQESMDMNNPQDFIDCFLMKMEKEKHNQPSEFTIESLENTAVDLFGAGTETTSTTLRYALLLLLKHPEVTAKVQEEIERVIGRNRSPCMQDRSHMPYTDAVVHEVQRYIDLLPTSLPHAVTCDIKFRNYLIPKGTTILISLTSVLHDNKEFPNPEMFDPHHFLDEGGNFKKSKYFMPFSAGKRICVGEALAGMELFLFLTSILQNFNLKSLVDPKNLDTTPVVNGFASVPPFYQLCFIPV
Sequence of ATP-binding cassette sub-family C member 2 (Q92887 whole entry): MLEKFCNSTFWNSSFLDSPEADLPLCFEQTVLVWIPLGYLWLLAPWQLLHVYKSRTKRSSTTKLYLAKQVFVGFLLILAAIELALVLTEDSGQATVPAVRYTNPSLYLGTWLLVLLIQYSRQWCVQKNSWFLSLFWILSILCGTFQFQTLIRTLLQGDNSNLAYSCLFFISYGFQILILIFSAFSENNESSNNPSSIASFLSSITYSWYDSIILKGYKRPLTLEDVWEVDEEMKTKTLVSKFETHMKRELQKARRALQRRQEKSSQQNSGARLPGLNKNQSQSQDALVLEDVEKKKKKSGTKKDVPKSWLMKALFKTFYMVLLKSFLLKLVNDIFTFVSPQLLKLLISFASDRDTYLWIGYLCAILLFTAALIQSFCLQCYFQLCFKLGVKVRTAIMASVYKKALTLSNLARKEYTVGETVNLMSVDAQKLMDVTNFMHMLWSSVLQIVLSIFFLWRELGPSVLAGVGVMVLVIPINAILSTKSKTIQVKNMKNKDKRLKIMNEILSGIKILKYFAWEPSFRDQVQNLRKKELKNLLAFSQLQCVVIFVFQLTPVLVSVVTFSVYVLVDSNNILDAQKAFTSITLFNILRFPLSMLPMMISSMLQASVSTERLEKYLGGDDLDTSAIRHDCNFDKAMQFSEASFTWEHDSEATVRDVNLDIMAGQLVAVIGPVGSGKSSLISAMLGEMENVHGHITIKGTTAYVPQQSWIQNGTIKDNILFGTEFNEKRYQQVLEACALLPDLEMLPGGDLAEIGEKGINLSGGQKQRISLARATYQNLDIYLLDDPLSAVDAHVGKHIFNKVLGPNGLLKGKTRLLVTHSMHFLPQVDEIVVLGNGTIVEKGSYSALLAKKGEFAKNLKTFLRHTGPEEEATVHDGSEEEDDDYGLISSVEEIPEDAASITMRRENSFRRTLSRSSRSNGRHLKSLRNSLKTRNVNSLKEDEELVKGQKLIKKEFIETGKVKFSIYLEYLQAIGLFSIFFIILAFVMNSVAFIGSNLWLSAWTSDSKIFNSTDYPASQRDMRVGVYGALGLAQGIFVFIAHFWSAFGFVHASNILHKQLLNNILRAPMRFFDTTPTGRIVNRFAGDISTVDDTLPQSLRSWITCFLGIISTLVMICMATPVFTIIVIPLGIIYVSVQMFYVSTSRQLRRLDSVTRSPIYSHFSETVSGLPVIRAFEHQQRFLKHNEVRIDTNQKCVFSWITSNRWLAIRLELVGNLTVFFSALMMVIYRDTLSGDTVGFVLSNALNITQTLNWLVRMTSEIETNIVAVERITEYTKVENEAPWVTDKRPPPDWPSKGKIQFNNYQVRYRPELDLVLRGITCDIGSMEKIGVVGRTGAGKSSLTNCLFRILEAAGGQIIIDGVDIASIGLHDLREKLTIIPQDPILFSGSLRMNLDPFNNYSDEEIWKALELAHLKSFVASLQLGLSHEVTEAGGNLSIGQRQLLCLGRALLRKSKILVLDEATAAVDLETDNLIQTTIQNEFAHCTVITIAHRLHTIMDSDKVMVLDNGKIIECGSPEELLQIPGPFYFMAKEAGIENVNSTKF

half-life [1]: 4.4 min
pIC50 [2]: 7.05
half-life [3]: 37 min
pIC50 (Cytochrome P450 3A4 [4]): 5.83
inhibition at 5 µM (P-gp (ABCB1) [5]): 99%
inhibition at 1 µM (P-gp (ABCB1) [6]): 97%
pIC50 [7]: 8.05
pEC50 [8]: 7.55
recovery [9]: 82%
half-life [10]: 15 min
Tlast [11]: 4.8 h
C0 at 8 h [12]: 6540 ng/mL
recovery [13]: 82%
pIC50 (Cytochrome P450 2C8): 4.96
Papp B→A [14]: < 0.08 ×10⁻⁶ cm/s
pIC50 (Cytochrome P450 2D6): 4.16
pIC50 (Cytochrome P450 2C9): 4.44
pIC50 [15]: < 5.00
pIC50 [16]: < 5.00
pIC50 [17]: 6.53
half-life [18]: 4.9 min
pIC50 (Cytochrome P450 3A4 [19]): 6.85
CLH [20]: 38 µL/min/mg
pIC50 (Cytochrome P450 3A4 [21]): 6.65
pIC50 (Cytochrome P450 2B6): 4.44
inhibition at 10 µM (P-gp (ABCB1) [22]): 99%
solubility thermodynamic [23]: 0.57 µM (≈ 0.39 µg/mL)
Compound: COc1cc(NC(=O)c2cc(=O)c3ccccc3o2)c(C(=O)Nc2ccc(C3CCN(Cc4cccc(-n5ccnc5)c4)CC3)cc2)cc1OC
Activity (MES-SA/Dx5): 0%
